Legend:
[1] = tested on: LNCaP prostate cancer cells; assay: Cell proliferation assay (CellTiter-Glo, total cellular ATP); type: cell-based; details: single agent; charcoal-stripped serum, 0.1 nM R1881, 7 days; percentage of DMSO-treated control
Procedure: Cells were grown in charcoal-stripped serum to deplete potential androgen from serum. Under these conditions, cell growth is dependent on exogenous androgen (e.g., R1881).
Androgen-dependent prostate cancer cell line, LNCaP, were grown in RPMI 1640 culture medium supplemented with 10% charcoal-stripped fetal bovine serum for 24 hours in 96-well tissue culture plates at a density of 1,000 cells per well. Cells were treated with various concentrations of compounds A or B alone and in combination in the presence of synthetic androgen (R1881, Sigma-Aldrich, St. Louis, Mo.). After 7 days, total cellular ATP was measured using the CellTiter-Glo Luminescent Cell Viability Assay (Promega, Madison, Wis.) on an EnVision plate reader. Background counts from wells containing no cells were subtracted and the data is presented as a percentage of the DMSO-treated control cells.

[2] = tested on: LNCaP cells; assay: Luminescent caspase 3/7 assay; type: cell-based; details: single agent 5 uM, five days, normalized to ATP signal
Procedure: Caspase 3/7 activity was normalized and plotted as a percentage of the untreated control samples. Data for 2 independent experiments (N=1, N=2) is shown and represents mean±std dev from duplicate treatments. Tumor cells were seeded in 96-well white tissue culture plates in 100 μL growth media (media with 10% FBS) or CSS media (media with 10% charcoal stripped fetal bovine serum). LNCaP cells were seeded at a density of 1,000 cells per well. Approximately 24 hr after plating, duplicate or triplicate plates of cells were treated with indicated compounds for both luminescent caspase-3/7 and CTG readings. At the end of the 5 days of incubations, half of the plates were lysed and caspase-3/7 activity was measured using the Caspase-Glo® 3/7 Assay (Promega) according to the manufacturer's protocol. Caspase-Glo reagent was added to each plate, incubated for at least 45 minutes, and luminescent signal was read on the EnVision Multilabel Plate Reader with a 0.1 sec integration time. The remaining plates were lysed and ATP levels were measured using the CTG assay. The caspase-3/7 signal was normalized to the ATP signal. The normalized values were expressed as a percentage of the control wells.

[3] = tested on: phospho-AKT; assay: Immunoblot assay, AKT phosphorylation; type: cell-based; details: LNCaP cells, Compound B 3 or 10 uM, 0.1 nM R1881, six hours
Procedure: LNCaP cells were treated with Compound B (3 or 10 uM) alone or in presence of compound A (3 uM), all in presence of 0.1 nM synthetic androgen (R1881).
LNCaP cells were grown in RPMI 1640 culture medium supplemented with 10% charcoal-stripped fetal bovine serum for 48 hours in 6-well tissue culture plates at a density of 500,000 cells per well. Cells were treated with the indicated compounds for six hours, washed with PBS, and whole cell lysates were prepared in RIPA buffer (Teknova, Hollister, Calif.). Cell lysates were clarified by centrifugation at 20,000 relative centrifugal force, 4° C., and protein was quantified using the BCA Protein Assay Kit (Pierce, Rockford, Ill.). Equal amounts of protein lysates were separated by SDS-PAGE using a 4-12% Bis-Tris polyacrylamide gel (Life Technologies) and transferred to a nitrocellulose membrane and incubated with antibodies against total and phospho-AKT, phospho-PRAS40, total and phospho-S6, androgen receptor, and FKBP5. Following incubation with primary antibody, blots were washed and incubated with IRDye-800 anti-mouse or IRDye-680 anti-rabbit antibodies for 1 h. Following thorough washing, blots were analyzed using an infrared imaging system (LI-COR).

[4] = tested on: phospho-S6; assay: Immunoblot assay, phospho-S6; type: cell-based; details: LNCaP cells, Compound B 3 or 10 uM alone or with compound A 3 uM, 0.1 nM R1881, six hours
[5] = tested on: prostate cancer xenograft models; details: in vivo; cited from earlier work
[6] = molecular target: androgen receptor (Homo sapiens, UniProt P10275); details: cited from earlier work
androgen receptor, sequence (P10275 whole entry, species assumed): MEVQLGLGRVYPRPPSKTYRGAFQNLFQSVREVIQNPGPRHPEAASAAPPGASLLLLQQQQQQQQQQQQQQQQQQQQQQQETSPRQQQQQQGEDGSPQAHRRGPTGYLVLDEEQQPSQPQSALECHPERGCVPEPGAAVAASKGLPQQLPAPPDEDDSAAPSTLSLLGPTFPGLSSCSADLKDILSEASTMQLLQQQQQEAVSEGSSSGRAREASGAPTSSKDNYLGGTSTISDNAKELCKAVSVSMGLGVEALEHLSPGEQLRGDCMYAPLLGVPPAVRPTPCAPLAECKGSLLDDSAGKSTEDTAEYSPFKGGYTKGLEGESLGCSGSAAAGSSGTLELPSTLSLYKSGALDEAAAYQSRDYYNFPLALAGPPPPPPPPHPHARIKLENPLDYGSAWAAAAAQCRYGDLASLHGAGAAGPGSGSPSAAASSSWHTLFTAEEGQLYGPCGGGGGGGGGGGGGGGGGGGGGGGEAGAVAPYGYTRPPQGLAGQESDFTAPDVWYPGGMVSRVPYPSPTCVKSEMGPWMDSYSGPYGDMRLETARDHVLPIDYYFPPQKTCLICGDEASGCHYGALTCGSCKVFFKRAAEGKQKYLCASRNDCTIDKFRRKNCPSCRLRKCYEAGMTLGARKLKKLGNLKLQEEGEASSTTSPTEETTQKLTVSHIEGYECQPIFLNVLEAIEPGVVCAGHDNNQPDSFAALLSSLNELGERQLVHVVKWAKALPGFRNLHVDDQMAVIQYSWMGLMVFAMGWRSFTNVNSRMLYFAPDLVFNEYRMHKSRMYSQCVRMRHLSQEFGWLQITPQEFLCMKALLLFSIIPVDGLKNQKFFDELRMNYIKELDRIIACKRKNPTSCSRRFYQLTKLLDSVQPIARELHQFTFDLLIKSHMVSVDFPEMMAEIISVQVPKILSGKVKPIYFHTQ

In the case of CNC(=O)c1ccc(N2C(=S)N(c3ccc(C#N)c(C(F)(F)F)c3)C(=O)C2(C)C)cc1F [Compound A, 4-(3-(4-Cyano-3-(trifluoromethyl)phenyl)-5,5-dimethyl-4-oxo-2-thioxoimidazolidin-1-yl)-2-fluoro-N-methylbenzamide], the LNCaP cell growth [1] is reported as “inhibited” and the “induction of caspase 3/7 activity” value [2] is reported as “minimal induction”.
For Cc1c(Cn2c(C)nc3c(C(=O)O)cc(N4CCOCC4)cc32)cccc1C(F)(F)F [Compound B, 2-methyl-1-{[2-methyl-3-(trifluoromethyl)phenyl]methyl}-6-(4-morpholinyl)-1H-benzimidazole-4-carboxylic acid], the AKT phosphorylation [3] was “inhibited AKT phosphorylation”, the LNCaP cell growth [1] was “inhibited the growth” and the “induction of caspase 3/7 activity” value [2] was “minimal induction”. For the same compound, the phospho-S6 [4] was “inhibition of phospho-S6”.
In the case of CC(O)c1cc(C(=O)N[C@@H](C)Cn2ccc(-c3ccc(C#N)c(Cl)c3)n2)[nH]n1 (some centres unmarked) [ODM-201], the “anti-proliferative activity in prostate cancer xenograft models” value [5] is listed as “anti-proliferative activity” and the “affinity for the androgen receptor” value [6] is listed as “high affinity”.

Reference: patent US20160228446A1, “Combination Drug Therapy” (GLAXOSMITHKLINE LLC, priority 2013, published 2016)
